Assay results from patent US20140024720A1, “PHARMACEUTICAL COMPOSITION CONTAINING CYCLOBENZAPRINE SUITABLE TO INTRANASAL ADMINISTRATION” (Campiglo Consulting SRL, priority 2011, published 2014).
Counter-ions that a name gives are not always drawn. Like-named read-outs stand apart in the source and are kept apart here.

Assays:
[1] = cited from earlier work
in vivo = details: rabbit; for AUC(0-inf) / AUC(0-t) / Cmax / Tmax / half-life: male, New Zealand albino, plasma
Procedure: The plasma levels of cyclobenzaprine (CBZ) were determined after a single intranasal dose of 1.5 mg/kg in a volume of 10 μl, and 3.0 mg/kg in a volume of 20 μl, and after a single oral dose of 1.5 mg/kg in New Zealand albino male rabbits.
1. The oral administration was performed with a 0.15% solution, the intranasal administration with a 15% solution.
2. Six male animals/group were treated with a single dose by intranasal or oral route.
3. Fifteen minutes before the drug administration the central artery of the ear was cannulated with a 25-gauge needle catheter and for each animal 7 blood collections at time 0 (TO, before drug administration) and at 15, 30, 60, 90, 120, 180 minutes after drug administration were performed. Three mL of blood sample were collected in heparinized tubes and the volume replaced with a Ringer-Lactate solution. The plasma samples were obtained from blood samples by centrifugation at 3000 g for 5 min. The plasma samples were be stored at −20±2° C. until the LC/MS/MS analysis.
4. Rabbit plasma concentrations of CBZ were determined using a validated LC-MS/MS method in the calibration range of 0.25-300 ng/mL.
Aliquots of 250 μL of rabbit plasma were spiked with 5 μL of internal standard (IS) solution (containing approximately 5000 ng/mL of IS, Imipramine Hydrochloride) in water:methanol (50/50, v/v), after vortex-mixing, 250 μL of borate buffer were added. After vortex-mixing, 3.5 mL of hexane were added. After vortex-mixing for 10 minutes and centrifugation at 10.000 rpm at +4° C. for 10 minutes, aliquots of 3 mL of organic phase were transferred into a single glass tube and dried under vacuum at 40° C. using a Büchi vacuum system. The residues were re-constituted with 100 μL of 20 Mm ammonium acetate buffer solution, 0.1%:acetonitrile (50/50, v/v) solution. The tubes were then capped, vortex-mixed and centrifugated at 4100 rpm at +4° C. for 10 minutes. The final extracts were transferred into an autosampler vial and 4 μL were injected into the LC-MS/MS system.
Calibration curves plot the ratio of the area of the compound and the IS (y) against the analyte concentration (x). A weighted linear regression function (1/x) is used to fit calibration lines and consequently to calculate CBZ concentrations. The lower and upper limits of quantification are 0.25 and 300 ng/mL of plasma samples.

[2] = pH higher than 7.4, opalescence formation
[3] = inhaled or intranasal, 1.5 mg/kg

Compound: CN(C)CCC=C1c2ccccc2C=Cc2ccccc21 [Cyclobenzaprine, 3-(5H-dibenzo[a,d]cyclo-epten-5-yliden)-N,N-dimethyl-1-propanamine hydrochloride]
- tonicity (10% aqueous solution): ipertonic
- tonicity (15% aqueous solution): ipertonic
- NaCl equivalent (aqueous solution containing 5% cyclobenzaprine hydrochloride): 0.88 g-eq di NaCl
- osmolarity (aqueous solution containing 5% cyclobenzaprine hydrochloride, practically isotonic): 400 mOsmol/L
- plasmatic half time ([1]; absorbed per os, range 8-37 hours): 18 h
- time until effect of a single administration is shown ([1]; after oral taking): one
- duration of effect of a single administration ([1]; oral taking): ≥ 12 h
- AUC(0-inf) (in vivo; [3]): 65.8 ng·h/mL
- AUC(0-t) (in vivo; [3]): 60.1 ng·h/mL
- Cmax (in vivo; [3]): 69.3 ng/mL
- Tmax (in vivo; [3]): 30 min
- half-life (in vivo; [3]): 49.3 min
- AUC(0-inf) (in vivo; inhaled or intranasal, 3 mg/kg): 65.6 ng·h/mL
- AUC(0-t) (in vivo; inhaled or intranasal, 3 mg/kg): 54.6 ng·h/mL
- Cmax (in vivo; inhaled or intranasal, 3 mg/kg): 65.1 ng/mL
- Tmax (in vivo; inhaled or intranasal, 3 mg/kg): 30 min
- half-life (in vivo; inhaled or intranasal, 3 mg/kg): 93.9 min
- AUC(0-inf) (in vivo; po, 1.5 mg/kg): 3.44 ng·h/mL
- AUC(0-t) (in vivo; po, 1.5 mg/kg): 2.08 ng·h/mL
- Cmax (in vivo; po, 1.5 mg/kg): 1.28 ng/mL
- Tmax (in vivo; po, 1.5 mg/kg): 30 min
- half-life (in vivo; po, 1.5 mg/kg): 124 min
- rate of absorption by intranasal route compared with oral route (in vivo): higher
- absorption by intranasal route (in vivo; intranasal): well absorbed
- λz (in vivo; intranasal 1.5 mg/kg, 15% solution): 0.940 h⁻¹
- λz (in vivo; intranasal 3.0 mg/kg, 15% solution): 0.452 h⁻¹
- dose dependence of Cmax and AUC by intranasal route (in vivo; intranasal 1.5 and 3.0 mg/kg): linear with the dose
- λz (in vivo; oral 1.5 mg/kg, 0.15% solution): 0.361 h⁻¹
- solubility of cyclobenzaprine base in the buffer solution [2]: not soluble
